Results from ChEMBL document CHEMBL5291721, “A preclinical secondary pharmacology resource illuminates target-adverse drug reaction associations of marketed drugs” (Nat Commun, 2023).

Assays:
[1] = target: T1, Alpha-1A adrenergic receptor (Homo sapiens, UniProt P35348)
T1 sequence (P35348 whole entry): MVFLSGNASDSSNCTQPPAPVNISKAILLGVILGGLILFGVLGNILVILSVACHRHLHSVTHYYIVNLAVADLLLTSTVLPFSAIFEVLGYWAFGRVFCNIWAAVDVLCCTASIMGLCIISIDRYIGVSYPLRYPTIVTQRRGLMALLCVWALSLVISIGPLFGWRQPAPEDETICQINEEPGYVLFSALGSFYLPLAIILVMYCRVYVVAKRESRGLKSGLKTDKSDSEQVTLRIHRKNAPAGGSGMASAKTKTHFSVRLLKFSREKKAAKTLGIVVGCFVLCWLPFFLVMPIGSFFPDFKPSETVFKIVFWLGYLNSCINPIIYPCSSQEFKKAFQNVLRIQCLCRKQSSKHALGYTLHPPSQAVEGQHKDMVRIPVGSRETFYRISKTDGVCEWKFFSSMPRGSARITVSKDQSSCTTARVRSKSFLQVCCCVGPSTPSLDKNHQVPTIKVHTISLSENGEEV

[2] = target: T2, Muscarinic acetylcholine receptor M1 (Homo sapiens, UniProt P11229); format: functional
T2 sequence (P11229 whole entry): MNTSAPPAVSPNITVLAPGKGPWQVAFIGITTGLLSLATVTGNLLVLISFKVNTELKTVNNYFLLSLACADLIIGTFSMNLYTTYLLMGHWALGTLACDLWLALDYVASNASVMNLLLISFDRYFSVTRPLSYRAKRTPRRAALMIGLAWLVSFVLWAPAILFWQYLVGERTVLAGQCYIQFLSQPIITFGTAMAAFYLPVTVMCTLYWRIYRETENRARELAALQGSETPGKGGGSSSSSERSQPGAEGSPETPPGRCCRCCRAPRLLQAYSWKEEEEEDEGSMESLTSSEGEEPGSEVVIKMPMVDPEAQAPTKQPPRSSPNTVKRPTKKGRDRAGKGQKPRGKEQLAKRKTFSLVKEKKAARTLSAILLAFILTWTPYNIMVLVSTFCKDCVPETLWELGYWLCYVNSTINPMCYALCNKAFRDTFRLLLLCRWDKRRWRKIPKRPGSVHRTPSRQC

[3] = target: T3, Muscarinic acetylcholine receptor M2 (Homo sapiens, UniProt P08172); format: functional, cell-based
T3 sequence (P08172 whole entry): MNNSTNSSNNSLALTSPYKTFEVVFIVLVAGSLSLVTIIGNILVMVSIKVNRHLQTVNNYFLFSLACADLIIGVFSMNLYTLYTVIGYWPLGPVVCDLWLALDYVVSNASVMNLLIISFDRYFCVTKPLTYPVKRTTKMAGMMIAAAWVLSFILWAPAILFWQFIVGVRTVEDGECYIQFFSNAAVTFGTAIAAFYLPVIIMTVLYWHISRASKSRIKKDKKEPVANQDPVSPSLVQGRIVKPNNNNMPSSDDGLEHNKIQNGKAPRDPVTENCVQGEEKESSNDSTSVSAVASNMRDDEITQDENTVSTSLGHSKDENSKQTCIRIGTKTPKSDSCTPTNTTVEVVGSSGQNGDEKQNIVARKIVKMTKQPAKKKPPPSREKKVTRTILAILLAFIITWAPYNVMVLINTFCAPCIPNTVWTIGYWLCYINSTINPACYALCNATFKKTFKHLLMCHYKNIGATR

[4] = target: Muscarinic acetylcholine receptor M3 (Homo sapiens, UniProt P20309)
Histamine H1 receptor = Histamine H1 receptor (Homo sapiens, UniProt P35367)
Melanocortin receptor 4 = Melanocortin receptor 4 (Homo sapiens, UniProt P32245)
Mu-type opioid receptor [5] = target: T4, Mu-type opioid receptor (Homo sapiens, UniProt P35372)
Progesterone receptor [6] = target: T5, Progesterone receptor (Homo sapiens, UniProt P06401); format: functional
T5 sequence (P06401 whole entry): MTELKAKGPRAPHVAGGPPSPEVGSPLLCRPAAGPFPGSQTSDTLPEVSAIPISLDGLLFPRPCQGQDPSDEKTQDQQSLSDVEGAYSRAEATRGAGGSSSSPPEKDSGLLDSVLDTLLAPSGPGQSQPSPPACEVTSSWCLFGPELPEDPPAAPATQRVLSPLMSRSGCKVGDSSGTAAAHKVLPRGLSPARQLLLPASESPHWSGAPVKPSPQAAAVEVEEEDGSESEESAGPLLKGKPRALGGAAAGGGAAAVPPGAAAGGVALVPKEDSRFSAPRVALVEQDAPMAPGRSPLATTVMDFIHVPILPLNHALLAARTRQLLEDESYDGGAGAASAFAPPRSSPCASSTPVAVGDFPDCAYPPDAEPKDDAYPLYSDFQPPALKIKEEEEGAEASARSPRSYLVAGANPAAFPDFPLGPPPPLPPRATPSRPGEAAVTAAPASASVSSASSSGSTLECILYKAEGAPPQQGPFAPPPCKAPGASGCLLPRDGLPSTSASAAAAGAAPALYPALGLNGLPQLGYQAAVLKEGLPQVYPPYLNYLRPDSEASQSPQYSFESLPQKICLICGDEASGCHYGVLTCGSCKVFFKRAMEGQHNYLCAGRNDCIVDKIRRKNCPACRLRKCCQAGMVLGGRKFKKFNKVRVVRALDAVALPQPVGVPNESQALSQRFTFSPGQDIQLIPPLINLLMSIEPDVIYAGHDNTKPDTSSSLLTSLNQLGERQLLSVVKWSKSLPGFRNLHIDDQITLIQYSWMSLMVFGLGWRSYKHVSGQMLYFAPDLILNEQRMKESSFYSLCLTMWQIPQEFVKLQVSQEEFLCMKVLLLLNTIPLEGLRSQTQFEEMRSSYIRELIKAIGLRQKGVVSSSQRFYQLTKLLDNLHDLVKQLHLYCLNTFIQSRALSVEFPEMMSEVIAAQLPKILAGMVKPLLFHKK

Progesterone receptor [7] = target: T5, Progesterone receptor; format: functional; remark: listed apart in the source
Mu-type opioid receptor [8] = target: T4, Mu-type opioid receptor; assay: biochemical; format: functional
[9] = target: 5-hydroxytryptamine receptor 2A (Homo sapiens, UniProt P28223); format: functional, cell-based
Note: assay procedure not described here.

Histamine H1 receptor, sequence (P35367 whole entry): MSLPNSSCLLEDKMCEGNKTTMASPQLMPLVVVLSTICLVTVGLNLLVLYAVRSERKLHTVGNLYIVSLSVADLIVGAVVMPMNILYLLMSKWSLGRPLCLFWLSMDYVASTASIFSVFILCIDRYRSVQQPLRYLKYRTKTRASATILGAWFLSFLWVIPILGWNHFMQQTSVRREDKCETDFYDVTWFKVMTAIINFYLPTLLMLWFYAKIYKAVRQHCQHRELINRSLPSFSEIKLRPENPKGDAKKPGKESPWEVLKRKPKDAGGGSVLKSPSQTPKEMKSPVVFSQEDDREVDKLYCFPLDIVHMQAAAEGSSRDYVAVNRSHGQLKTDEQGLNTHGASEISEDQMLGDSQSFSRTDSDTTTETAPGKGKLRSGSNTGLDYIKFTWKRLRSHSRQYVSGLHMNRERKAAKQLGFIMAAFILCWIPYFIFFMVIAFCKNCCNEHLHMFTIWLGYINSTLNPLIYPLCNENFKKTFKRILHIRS
T4 sequence (P35372 whole entry): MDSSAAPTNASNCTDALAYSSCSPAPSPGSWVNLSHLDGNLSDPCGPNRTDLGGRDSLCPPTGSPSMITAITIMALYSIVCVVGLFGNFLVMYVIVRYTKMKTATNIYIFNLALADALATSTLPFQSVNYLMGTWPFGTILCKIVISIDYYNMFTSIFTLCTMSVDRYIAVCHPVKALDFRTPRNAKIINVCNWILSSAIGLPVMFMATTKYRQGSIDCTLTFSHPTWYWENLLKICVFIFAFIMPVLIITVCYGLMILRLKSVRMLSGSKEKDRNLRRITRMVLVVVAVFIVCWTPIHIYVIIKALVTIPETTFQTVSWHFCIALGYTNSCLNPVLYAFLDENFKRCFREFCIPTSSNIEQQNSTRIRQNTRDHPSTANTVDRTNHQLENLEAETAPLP
Melanocortin receptor 4, sequence (P32245 whole entry): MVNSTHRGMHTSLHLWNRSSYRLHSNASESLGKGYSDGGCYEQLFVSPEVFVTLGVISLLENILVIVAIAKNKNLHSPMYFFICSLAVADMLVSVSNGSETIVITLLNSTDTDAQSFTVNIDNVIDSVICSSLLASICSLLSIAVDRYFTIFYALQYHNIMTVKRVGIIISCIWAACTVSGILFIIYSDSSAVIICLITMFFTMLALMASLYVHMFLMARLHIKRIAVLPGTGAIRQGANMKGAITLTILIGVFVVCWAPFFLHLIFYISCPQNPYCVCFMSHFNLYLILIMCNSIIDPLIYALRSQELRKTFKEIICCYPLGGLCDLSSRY
Muscarinic acetylcholine receptor M3, sequence (P20309 whole entry): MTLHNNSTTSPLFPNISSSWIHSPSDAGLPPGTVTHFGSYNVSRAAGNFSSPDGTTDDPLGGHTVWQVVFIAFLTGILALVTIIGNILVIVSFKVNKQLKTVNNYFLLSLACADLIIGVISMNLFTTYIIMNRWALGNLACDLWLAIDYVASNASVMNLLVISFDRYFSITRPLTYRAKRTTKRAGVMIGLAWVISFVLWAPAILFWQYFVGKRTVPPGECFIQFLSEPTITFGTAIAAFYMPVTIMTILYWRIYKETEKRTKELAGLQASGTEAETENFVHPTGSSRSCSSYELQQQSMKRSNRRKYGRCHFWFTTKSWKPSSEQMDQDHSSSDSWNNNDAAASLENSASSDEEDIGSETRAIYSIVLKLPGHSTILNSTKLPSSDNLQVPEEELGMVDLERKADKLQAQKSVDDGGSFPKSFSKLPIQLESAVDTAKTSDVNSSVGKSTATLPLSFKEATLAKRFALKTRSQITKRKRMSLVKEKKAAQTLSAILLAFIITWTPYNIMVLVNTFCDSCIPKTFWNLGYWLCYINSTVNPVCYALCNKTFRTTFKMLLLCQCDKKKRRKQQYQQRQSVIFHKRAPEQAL
5-hydroxytryptamine receptor 2A, sequence (P28223 whole entry): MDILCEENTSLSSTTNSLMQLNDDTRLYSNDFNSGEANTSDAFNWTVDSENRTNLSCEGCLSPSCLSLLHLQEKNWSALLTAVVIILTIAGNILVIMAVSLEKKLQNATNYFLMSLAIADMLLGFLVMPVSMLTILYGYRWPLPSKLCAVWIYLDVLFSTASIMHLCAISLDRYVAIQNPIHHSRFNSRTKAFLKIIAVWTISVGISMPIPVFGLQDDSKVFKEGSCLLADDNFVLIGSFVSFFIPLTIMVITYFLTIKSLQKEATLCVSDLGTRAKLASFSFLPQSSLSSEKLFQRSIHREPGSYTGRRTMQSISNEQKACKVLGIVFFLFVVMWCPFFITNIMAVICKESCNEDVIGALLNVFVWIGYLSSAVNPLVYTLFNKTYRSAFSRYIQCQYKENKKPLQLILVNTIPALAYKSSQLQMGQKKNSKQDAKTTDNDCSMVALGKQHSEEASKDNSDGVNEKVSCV

SMILES	AC50 [1]	AC50 [2]	AC50 [3]	AC50 [4]	AC50 (Histamine H1 receptor)	AC50 (Melanocortin receptor 4)	AC50 (Mu-type opioid receptor [5])	AC50 (Progesterone receptor [6])	AC50 (Progesterone receptor [7])	AC50 (Mu-type opioid receptor [8])	AC50 [9]
C[C@]12CC[C@H](O)CC1=CC[C@@H]1[C@@H]2CC[C@]2(C)C(c3cccnc3)=CC[C@@H]12 [ABIRATERONE]	> 10 µM	> 10 µM	> 10 µM	> 30 µM	> 10 µM	> 30 µM	> 30 µM				
CC(=O)OCC[N+](C)(C)C [ACETYLCHOLINE]	> 10 µM				> 10 µM	> 30 µM	> 10 µM	29 µM	> 30 µM		
NS(=O)(=O)c1cc(C2(O)NC(=O)c3ccccc32)ccc1Cl (stereo not drawn) [CHLORTHALIDONE]	> 10 µM		> 10 µM			> 10 µM	> 30 µM	> 10 µM	> 10 µM	> 30 µM	
OCCN1CCN(CC/C=C2/c3ccccc3Sc3ccc(Cl)cc32)CC1 [ZUCLOPENTHIXOL]	0.0114 µM	> 10 µM	> 10 µM	> 10 µM	0.028 µM	> 10 µM	> 10 µM	> 10 µM	> 10 µM	> 30 µM	0.51 µM
O=c1oc2ccccc2c(O)c1Cc1c(O)c2ccccc2oc1=O [DICUMAROL]	> 10 µM		> 10 µM			> 10 µM	> 30 µM	> 10 µM	> 10 µM	> 30 µM	
